{"source": "patent US5563037A", "about": "“Homogeneous method for assay of double-stranded nucleic acids using fluorescent dyes and kit useful therein” (Johnson & Johnson Clinical Diagnostics, Inc., priority 1995, dated 1996)", "key": {"[1]": {"molecular_target": "double-stranded nucleic acids", "assay": "Binding constant (Kb) of fluorescent dye with double-stranded nucleic acids", "settings": "Kp from Molecular Probes catalog divided by 55", "from_the_text": "The fluorescent dyes useful herein are generally defined as unsymmetrical cyanine dyes having a binding constant (Kb) within the range of from about 1×104 to about 5×105 (molar^-1). As used to define Kb, \"about\" refers to a variance of 10%. The dyes are also water-soluble or water-dispersible so they can bind to the nucleic acids in the aqueous reaction mixture. Depending upon the anions used, the dyes may be dissolved in a water-miscible solvent.\nParticularly useful fluorescent dyes are commercially available from Molecular Probes, Inc. having the trade names and Kp values listed in Table I below. However, this invention is not to be construed as limited to the particular Molecular Probes, Inc. dyes listed therein since these are but preferred dyes. The cations of these preferred dyes are also identified below by chemical structure. The compounds can include any suitable divalent anion, or two monovalent anions. Iodide is preferred. [drawing 3]\n*The Kb values in the table were calculated by dividing the partitio\ncoefficient (Kp) reported in the Molecular Probes, Inc. catalog, page 224\nby 55, the molarity of water."}, "[2]": {"tested_on": "HIV-I DNA", "assay": "Example 2: fluorescence of amplification products", "format": "biochemical", "method": "(§1) The method of this invention was compared to an amplification and detection method outside the scope of this invention, which was carried out using YOYO-1 (1 μmolar final concentration), a tetravalent fluorescent dye, in the buffered solution described above. This dye has the following structure: [drawing 4]\n(§2) The PCR reaction mixture of Example 1 (except the DNA polymerase) was made to a volume of 5472 μl. The resulting mixture was aliquoted into tubes A, B and C (1824 μl each) representing Samples A, B and C, respectively.\n(§3) The sample in Tube A was diluted with buffer (220 μl) and subjected to amplification without any fluorescence dye present. The dye was added at the end of amplification for quantitative detection of the resulting products.\n(§4) In addition to the PCR reagents, the sample in Tube B contained YOYO-1 fluorescent dye (0.1 μmolar) which had been added prior to amplification (220 μl of a 10 μmolar solution).\n(§5) The sample in Tube C also contained YO-PRO-1 fluorescent dye (0.1 μmolar) which had been added prior to amplification (220 μl of a 10 μmolar solution).\n(§6) The DNA polymerase (88 μl) and target HIV-I DNA target nucleic acid (220 μl) were then added to each tube, and the contents of the each of the three tubes were used to fill the PCR reagent compartment of eight pouches.\nAmplification was carried out using the same procedures as in Example 1. […]\n(§7) The results of amplification were detected in three ways: (1) color dye scores visually evaluated as 0 (no signal) to 10 (highest signal density), (2) ethidium bromide stained electrophoretic gels, and (3) fluorescence measured on a commercially available Perkin Elmer fluorimeter.\nThree replicate assays of each sample (A, B and C) were carried out using each detection means. The average result for each detection means was as follows:\nFluorescent signal was generated using a Perkin-Elmer LS-5B fluorimeter, at the following wavelengths for both dyes:\nEach amplification product mixture was diluted 100× into a solution of each dye (1 μmolar final concentration). Background signals were obtained from a mixture of amplification reagent mixture and each dye."}, "[3]": {"tested_on": "HIV-I DNA", "assay": "Example 2: leuco dye color scores of amplified target in pouches", "format": "biochemical", "settings": "dye added prior to amplification", "method": "as §1\nAmplification was carried out using self-contained chemical pouches such as those described in U.S. Pat. No. 5,229,297 (Schnipelsky et al). Those pouches contained the capture probe SEQ ID NO:5 attached to particles which were immobilized in a detection channel where reactions can take place.\nThe pouches were loaded with reagents, as follows:\nas §2, §3, §4, §5, §6\nAmplification was carried out using the same procedures as in Example 1. The PCR protocol was similarly carried out for 40 cycles using a thermal cycler as follows:\n1) Preheat to denature at 95° C. for 60 seconds,\npriming and extension for 40 seconds at 63.5° C., and denaturation for 10 seconds at 95° C., and\n3) final denaturation for 60 seconds at 95° C.\nas §7\nThe noted color scores were obtained by using immobilized capture probes in the pouches with which the amplified target hybridized during incubation for 5 minutes at 42° C. The immobilized target was contacted with the conjugate solution (identified above) for 1 minute at 30° C., followed by the wash solution for 1 minute at 55° C. The leuco dye solution was then added at 30° C. and the resulting color signal was observed after two minutes incubation at 30° C. […]"}}, "note": "Several values for one entry are separate records, joined by “and”; a condition that tells them apart may be missing. Equal values may be shown once."}
{"smiles": "C[n+]1c(C=C2C=CN(CCC[N+](C)(C)C)c3ccccc32)oc2ccccc21", "note": "[Compound E]", "values": [{"measurement": "Kd", "setting": "[1]", "value": 6.67, "unit": "µM"}, {"measurement": "Fluorescence, dye added after amplification (Sample A)", "setting": "[2]; Sample A, dye added after amplification, replicates, 491/509 nm, listed as YO-PRO-1", "value": "3.6 Fluorescent Units and 3.7 Fluorescent Units and 3.4 Fluorescent Units and 3.0 Fluorescent Units"}, {"measurement": "Background fluorescence", "setting": "[2]; amplification reagent mixture and dye, excitation 491 nm, emission 509 nm", "value": 0.03, "unit": "Fluorescent Units"}, {"measurement": "effect of dye on amplification / overall signal", "setting": "[2]; comparison of the two dyes (fluorescence)", "value": "lower overall signal"}, {"measurement": "Fluorescence, dye present during amplification (Samples B, C)", "setting": "[2]; dye added prior to amplification, replicates, 491/509 nm, listed as YO-PRO-1", "value": "3.7 Fluorescent Units and 3.5 Fluorescent Units and 3.6 Fluorescent Units and 3.2 Fluorescent Units and 2.8 Fluorescent Units"}, {"measurement": "signal and use of dye during amplification", "setting": "[2]; dye included in reagent mixture during amplification", "value": "can be included in the reagent mixture during amplification"}, {"measurement": "effect of dye on amplification (color scores)", "setting": "[3]", "value": "not adversely affected"}, {"measurement": "Average Color Score", "setting": "[3]; leuco dye, 0 (no signal) to 10 (highest signal density), 40 cycles", "value": 6}]}
